Results: patent publication US4661602A, “Substituted alkyl imidazole derivatives” (G. D. Searle & Co., priority 1985, dated 1987)
Converted amounts (≈) assume the structure as drawn. Like-named read-outs stand apart in the source and are kept apart here.

Tests used:
[1] = system: Cl. perfringens NCTC 8237; assay: microbe, parasite or virus in culture; assay type: cell-based; settings: Clostridium perfringens, NCTC8237
[2] = system: Fuso. necrophorum ATCC 11295; assay: Anti-anaerobic activity, additional strains; assay type: cell-based; settings: Fusobacterium necrophorum, ATCC11295
B. Fragilis NCTC 10581 = assay: Anti-anaerobic activity, strain A (microtitre plate MIC/MBC); assay type: cell-based, Bacteroides fragilis
[3] = system: Propionibacterium acnes NCTC 737; assay: Anti-anaerobic activity, additional strains; assay type: cell-based; settings: Cutibacterium acnes, NCTC737
B. Fragilis NCTC 9344 = assay: Anti-anaerobic activity, strain C (microtitre plate MIC/MBC); assay type: cell-based; settings: Bacteroides fragilis, NCTC9344, 48 h
P. prevotti ATCC 9321 = assay: Anti-anaerobic activity, additional strains; assay type: cell-based; settings: P. prevotti ATCC 9321
Trichomonas vaginalis = assay: MIC against Trichomonas vaginalis (Diamonds Medium); assay type: cell-based; settings: Diamonds Medium, lowest concentration at which no mobile organisms are viable microscopically, read-out: MIC
Campl. fetus ATCC 29428 = assay: Anti-anaerobic activity, additional strains; assay type: cell-based; settings: Campylobacter fetus, ATCC29428
B. Fragilis WS-1 = assay: Anti-anaerobic activity, strain E (microtitre plate MIC/MBC); assay type: cell-based; settings: Bacteroides fragilis, 48 h
B. Fragilis ATCC 11295 = assay: Anti-anaerobic activity, strain D (microtitre plate MIC/MBC); assay type: cell-based; settings: Bacteroides fragilis, ATCC11295, 48 h
B. Fragilis NCTC 9343 = assay: Anti-anaerobic activity, strain B (microtitre plate MIC/MBC); assay type: cell-based, Bacteroides fragilis; settings: for MIC: strain B, 48 hours, 37° C., anaerobic chamber, lowest concentration with no detectable growth
[4] = system: Clostridium perfringens NCTC 523; assay: microbe, parasite or virus in culture; assay type: cell-based; settings: NCTC523
[5] = system: Peptococc. magnus ATCC 29328; assay: Anti-anaerobic activity, additional strains; assay type: cell-based
[6] = system: Peptostrepto anaerobicus ATCC 27337; assay: Anti-anaerobic activity, additional strains; assay type: cell-based; settings: Peptostrepto anaerobicus ATCC 27337
P. acnes NCTC 7337 = assay: Anti-anaerobic activity, additional strains; assay type: cell-based, Propionibacterium acnes; settings: Cutibacterium acnes, NCTC7337
[7] = Bacteroides fragilis, NCTC10581, 48 h
[8] = Bacteroides fragilis, NCTC9343, 48 h

SMILES: Cc1ncc([N+](=O)[O-])n1CCO [Metronidazole, reference compound]
- MBC [1]: 10 µg/mL (≈ 58.4 µM)
- MIC [1]: 10 µg/mL (≈ 58.4 µM)
- MBC [2]: 10 µg/mL (≈ 58.4 µM)
- MIC [2]: 10 µg/mL (≈ 58.4 µM)
- MBC (B. Fragilis NCTC 10581; [7]): 1.2 µg/mL (≈ 7.01 µM)
- MIC (B. Fragilis NCTC 10581; [7]): 0.8 µg/mL (≈ 4.67 µM)
- MIC (B. Fragilis NCTC 10581; Bacteroides fragilis, NCTC10581, 48 h, strain A, 48 hours, 37° C., anaerobic chamber, lowest concentration with no detectable growth, read-out: MIC): 0.6 µg/mL (≈ 3.51 µM)
- MIC (B. Fragilis NCTC 10581; strain A, 48 hours, 37° C., anaerobic chamber, lowest concentration with no detectable growth): 1.2 µg/mL (≈ 7.01 µM)
- MBC [3]: 10 µg/mL (≈ 58.4 µM)
- MIC [3]: 10 µg/mL (≈ 58.4 µM)
- MBC (B. Fragilis NCTC 9344): 1.2 µg/mL (≈ 7.01 µM)
- MIC (B. Fragilis NCTC 9344): 0.8 µg/mL (≈ 4.67 µM)
- MBC (P. prevotti ATCC 9321): 2.5 µg/mL (≈ 14.6 µM)
- MIC (P. prevotti ATCC 9321; read-out: MIC): 1.2 µg/mL (≈ 7.01 µM)
- MIC (Trichomonas vaginalis): 0.6 µg/mL (≈ 3.51 µM)
- MBC (Campl. fetus ATCC 29428): 10 µg/mL (≈ 58.4 µM)
- MIC (Campl. fetus ATCC 29428): 10 µg/mL (≈ 58.4 µM)
- MBC (B. Fragilis WS-1): 1.2 µg/mL (≈ 7.01 µM)
- MIC (B. Fragilis WS-1): 0.8 µg/mL (≈ 4.67 µM)
- MBC (B. Fragilis ATCC 11295): 10 µg/mL (≈ 58.4 µM)
- MBC (B. Fragilis NCTC 9343; [8]): 1.2 µg/mL (≈ 7.01 µM)
- MIC (B. Fragilis NCTC 9343; [8]): 1.5 µg/mL (≈ 8.76 µM)
- MIC (B. Fragilis NCTC 9343): 0.8 µg/mL (≈ 4.67 µM)
- MBC [4]: 1.2 µg/mL (≈ 7.01 µM)
- MIC [4]: 0.08 µg/mL (≈ 0.467 µM)
- MBC [5]: 10 µg/mL (≈ 58.4 µM)
- MIC ([5]; Peptococc. magnus ATCC 29328): 0.6 µg/mL (≈ 3.51 µM)
- MIC [6]: 0.3 µg/mL (≈ 1.75 µM)
- MBC ([6]; read-out: MBC): 0.3 µg/mL (≈ 1.75 µM)
- MBC (P. acnes NCTC 7337): 10 µg/mL (≈ 58.4 µM)
- MIC (P. acnes NCTC 7337): 10 µg/mL (≈ 58.4 µM)
